Source: publication PMC10375895, “Repurposed Fenoprofen Targeting SaeR Attenuates Staphylococcus aureus Virulence in Implant-Associated Infections” (ACS Central Science, 2023)

Biological target: SaeR (response regulator) (Staphylococcus aureus, UniProt Q2G2G2)
Experiment: SPR titration with purified SaeR ([…]); EMSA shows loss of hla promoter DNA binding

Chain of SaeR (response regulator) (Q2G2G2 whole entry): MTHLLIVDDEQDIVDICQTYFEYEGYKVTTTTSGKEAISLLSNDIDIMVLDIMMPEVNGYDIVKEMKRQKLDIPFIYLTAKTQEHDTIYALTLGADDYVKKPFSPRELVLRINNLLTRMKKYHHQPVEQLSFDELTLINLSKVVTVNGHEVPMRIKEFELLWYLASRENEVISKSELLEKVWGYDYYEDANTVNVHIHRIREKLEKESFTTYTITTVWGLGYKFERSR

With `CC(C(=O)O)c1cccc(Oc2ccccc2)c1` (stereo not shown) [fenoprofen] as the compound, how does the Kd read?
The Kd was 16.5 µM.
